From patent publication US9096591B2, “Tetracyclic compounds” (Medivation Technologies, Inc., priority 2007, dated 2015)

Tests used:
[1] = test system: adrenergic receptors α1D, α2A, α2B; serotonin receptor 5-HT6; dopamine receptor D2L; test: Classification of compounds (Type 1-4) from receptor binding and neurite outgrowth
AMPA receptors = test: AMPA-receptor activity: kainic acid-induced currents in Purkinje cells (patch-clamp); assay type: cell-based, rat; conditions: mean±SEM, control=100%
Procedure: The analysis of effects of the testing compounds on AMPA receptors was carried out using an electrophysiological patch-clamp method in whole cell configuration (Hamill et al., 1980) of the Purkinje cell fresh isolated from the cerebellum of juvenile rats (12-15 days). The isolation was carried out using a modified method (Kaneda et al., 1988) in which cerebral 400-600 μm sections were incubated for 60 min in the temperature controlled chamber in 10 mL of buffer solution (150 mM NaCl, 5 mM KCl, 2 mM CaCl2, 2 mM MgSO4.7H2O, 10 mM HEPES, 15 mM glucose, pH 7.42). The incubation solution was exchanged with the incubation buffer with pronase (2 mg/mL) and collagenase (1 mg/mL) for 70 min. After a 20 min wash with the original buffer, all sections were placed into the Petri dish and were separated using a Pasteur pipette. All solutions were constantly aerated with 100% O2 at 34° C. The composition of extracellular saline was: 150 mM NaCl, 5 mM KCl, 2.6 mM CaCl2, 2 mM MgSO4.7H2O, 10 mM HEPES, 15 mM glucose, pH 7.36. The transmembrane current was induced as a result of the activation of AMPA receptors by a superfusion with the agonist solution (kainic acid). The currents were measured using borosilicate microelectrodes (resistance […]) filled with 100 mM KCl, 11 mM EGTA, 1 mM CaCl2, 1 mM MgCl2, 10 mM HEPES, 5 mM ATP, pH 7.2. The currents were registered using EPC-9 (HEKA, Germany) and recorded with Pulse software package which was also purchased from HEKA. The analysis of observations was carried out using Pulsefit (HEKA, Germany) and the statistical significance was analyzed using a Student's T-test criteria. Data are presented as mean±SEM in % of control values.
Compounds of the invention were tested in 3-5 neurons. Every concentration of compound was repeated three-four times in every neuron. Data are presented as mean±SEM in % of Control values (Table 13+14, FIGS. 8-12). Control value=100%.

SMILES | compound type (classification by receptor binding profile and neurite outgrowth) [1] | kainic acid-induced currents in Purkinje cells, % of Control values (AMPA receptors; compound 3 × 10^−5 M) [%] | kainic acid-induced currents in Purkinje cells, % of Control values (AMPA receptors; compound 10^−5 M) [%] | kainic acid-induced currents in Purkinje cells, % of Control values (AMPA receptors; compound 10^−6 M) [%] | kainic acid-induced currents in Purkinje cells, % of Control values (AMPA receptors; compound 10^−7 M) [%] | kainic acid-induced currents in Purkinje cells, % of Control values (AMPA receptors; compound 10^−8 M) [%]
CN1CCc2c(c3cc(Cl)ccc3n2CCc2ccc(C(F)(F)F)nc2)C1 [Compound 250] | Type one | – | – | – | – | –
CN1CCc2c(c3cc(Cl)ccc3n2CCc2nc(-c3ccccc3)cs2)C1 [Compound C1-8] | – | 90 ± 7 | 105 ± 8 | 123 ± 8 | 102 ± 3 | 100 ± 4
